Experimental data: US20080107661A1, “MUC1 and ABL” (Dana-Farber Cancer Institute, Inc., priority 2006, published 2008)

Key:
c-Abl = test: Nuclear and cytosolic c-Abl in HeLa/vector and HeLa/MUC1 cells after genotoxic agents (subcellular fractionation, immunoblot); assay type: cell-based, human; settings: 2 hours
Excerpt: Cell culture. Human HeLa cervical cancer cells, HCT116/vector (HCT116 colorectal carcinoma cells stably transfected with an empty vector), HCT116/MUC1 (HCT116 colorectal carcinoma cells stably transfected with an expression vector encoding a MUC1 polypeptide), HCT116/MUC1(Y46F) (HCT116 colorectal carcinoma cells stably transfected with an expression vector encoding a mutant MUC1 polypeptide containing an amino acid substitution at position 46 changing a tyrosine (Y) to phenylalanine (F)) colon cancer cells (Ren et al., (2002) J. Biol. Chem. 277: 17616-17622) and 293 cells were cultured in Dulbecco's modified medium with 10% heat-inactivated fetal bovine serum, 100 units/ml penicillin, 100 μg/ml streptomycin and 2 mM L-glutamine. Human ZR-75-1/vector (ZR-75-1 breast cancer cells stably transfected with an empty vector) and ZR-75-1/MUC1siRNA (ZR-75-1 breast cancer cells stably transfected with an expression vector encoding an siRNA specific for MUC1) breast cancer cells (Ren et al., (2004) Cancer Cell 5:163-175) were grown in RPMI1640 medium containing 10% heat-inactivated fetal bovine serum and antibiotics. Cells were treated with 1 μM adriamycin (ADR; Calbiochem), 100 μM cisplatin (CDDP; Sigma) or 10 μM STI571 (Gleevec; Novartis, Basel, Switzerland).
Subcellular fractionation. Nuclear fractions were prepared as described (Kharbanda et al., (1996) Cancer Res. 56:3617-3621). Cytosolic fractions were prepared as described (Hill et al., (2004) EMBO J. 23:2134-2145). Cell membrane fractions were prepared with the Plasma Membrane Extraction Kit (BioVision Research Products, Mountain View, Calif.). Mitochondria were purified as described (Ren et al., (2004) Cancer Cell 5:163-175; Ren et al., (2006) Oncogene 25:20-31).
(§1) Immunoprecipitations and immunoblot analysis. Cell lysates were prepared as described (Kharbanda et al., (1995) Nature 376:785-788); Yoshida et al., (2005) Nat. Cell Biol. 7:278-285). Soluble proteins were incubated with anti-MUC1-N (Kufe et al., (1984) Hybridoma 3:223-232), anti-MUC1-C (Ab5; Neomarker, Montreal, Quebec), anti-Flag (Sigma, St. Louis, Mo.), anti-c-Abl (Ab3; Oncogene, San Diego, Calif.) or anti-14-3-3 (Abcam Inc., Cambridge, Mass.) antibodies for 2 hours at 4° C., followed by precipitation with protein G-Sepharose beads for 1 hour. […] Intensity of the signals was determined by densitometric scanning. Statistical significance was determined by the Student's t-test.

MUC1 and c-Abl = test: Co-immunoprecipitation of c-Abl with MUC1 (anti-MUC1-N precipitates) after CDDP; assay type: cell-based, human; settings: HCT116/MUC1 cells; CDDP, 1, 2 and 4 hours
Experimental: as §1, with “hour. Immune complexes and cell lysates (50 μg) were subjected to immunoblot analysis with anti-MUC1-N, anti-MUC1-C, anti-c-Abl (Calbiochem, San Diego, Calif.), anti-lamin B (Oncogene, San Diego, Calif.), anti-IκBα (Santa Cruz Biotechnology, Santa Cruz, Calif.), anti-GFP (BD Biosciences, San Jose, Calif.), anti-Flag (Sigma, St. Louis, […].), anti-β-actin (Sigma, St. Louis, Mo.), anti-phospho-c-Abl-[…] (Cell Signaling Technology), anti-14-3-3 (Santa Cruz Biotechnology, Santa Cruz, Calif.), anti-PKC5 (Santa Cruz Biotechnology), anti-HSP60 (BD Biosciences, San Jose, Calif.), anti-PCNA (Oncogene), or anti-calnexin (Stressgen, San Diego, Calif.) antibodies.” for “hour.”

[NH2][Pt]([NH2])([Cl])[Cl] [CDDP, cisplatin]
cytosolic c-Abl (c-Abl; HeLa/vector cells, CDDP): decrease in cytosolic c-Abl
nuclear targeting of c-Abl (c-Abl; HeLa/vector versus HeLa/MUC1 cells, 100 μM CDDP): MUC1 attenuates nuclear targeting of c-Abl
binding of MUC1 with c-Abl (MUC1 and c-Abl): increased binding of MUC1
